Where two headings read alike, the source gives them in different places.
Assays:
Format in all cases: cell-based
[1] = target: T1, EGFR L858R/T790M/C797S (Homo sapiens, UniProt P00533, C797S/L858R/T790M); test: EGFR degradation HTRF assay in BaF3-LTC cells; settings: for Dmax: read-out: BaF3-LTC Dmax (%)
T1 construct: expressed in transfected cells; host or cells: BaF3-LTC
In short: (§1)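 BaF3 cells expressing EGFR L858R/C797S or L858R/T790M/C797S treated 16 h at 37 °C with compounds (top 10 uM, 5-fold, 8 doses; 0.2% DMSO). Remaining EGFR quantified by HTRF in lysates after overnight antibody incubation. Degradation percentage versus DMSO controls; DC50 from four-parameter fit, Dmax as maximal degradation.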

[2] = tested on: EGFR Del19/C797S; test: EGFR degradation HTRF assay in H1975-clone #23 (H1975 #23 DC); settings: H1975-clone #23 (Del19/C797S); for DC50: 16 h treatment, HTRF; for H1975 #23 DC Dmax (%): maximum percentage of inhibition (degradation)
Experimental: (§2) Cell Line Generation H1975-clone #28(Del19/T790M/C797S) and H1975-clone #23(Del19/C797S). EGFR-Del19/T790M/C797S and EGFR-Del19/C797S were stably expressed in H1975 cell lines by lentivirus-mediated over-expression, respectively. The EGFR over-expressed cells then underwent gene knockout, in which the EGFR targeting sgRNA was designed to only target the endogenous EGFR copies and preserve the exogenous EGFR copies. Followed by the gene knockout, the edited H1975 cells were seeded in 96 well plates at the concentration of 1 cell/well, cultured for about 2 weeks to allow single clones formation. The formed clones were screened by DNA sequencing and whole exon sequencing analysis for the desired edition. H1975-clone #28 and H1975-clone #23 were finally confirmed as homozygous Del19/T790M/C797S EGFR and Del19/C797S EGFR clones, respectively.
(§3) After 16 h treatment, add HTRF lysis buffer to each well; seal the plate and incubate 1 hour at room temperature on a plate shaker; Once the cells are lysed, 16 μL of cell lysate are transferred to a PE 384-well HTRF detection plate; 4 μL of pre-mixed HTRF antibodies are added to each well; Cover the plate with a plate sealer, spin 1000 rpm for 1 min, Incubate overnight at room temperature; Read on BMG PheraStar with HTRF protocol (337 nm-665 nm-620 nm).
(§4) The inhibition (degradation) percentage of the compound was calculated by the following equation: Inhibition percentage of Compound=100−100×(Signal−low control)/(High control−low control), wherein signal=each test compound group
(§5) High control=Cell group with added DMSO and without compound, indicating microplate readings without EGFR degradation;
(§6) Dmax is the maximum percentage of inhibition (degradation).
(§7) The IC50 (DC50) value of a compound can be obtained by fitting the following equation
(§8) Y=Bottom+(TOP−Bottom)/(1+((IC50/X)^hillslope))
Wherein, X and Y are known values, and IC50, Hillslope, Top and Bottom are the parameters obtained by fitting with software. Y is the inhibition percentage (calculated from the equation), X is the concentration of the compound; IC50 is the concentration of the compound when the 50% inhibition is reached. The smaller the IC50 value is, the stronger the inhibitory ability of the compound is. Vice versa, the higher the IC50 value is, the weaker the inhibitory ability of the compound is; Hillslope represents the slope of the fitted curve, generally around 1*; Bottom represents the minimum value of the curve obtained by data fitting, which is generally 0%±20%; Top represents the maximum value of the curve obtained by data fitting, which is generally 100%±20%. The experimental data were fitted by calculating and analyzing with Dotmatics data analysis software.

[3] = target: T2, EGFR L858R/C797S (Homo sapiens, UniProt P00533, C797S/L858R); test: EGFR degradation HTRF assay in BaF3 LC cells; settings: for DC50: 16 h treatment, HTRF
T2 construct: expressed in transfected cells; host or cells: BaF3 LC
In short: as §1

[4] = tested on: EGFR Del19/T790M/C797S; test: EGFR degradation HTRF assay in H1975-clone #28 (H1975 #28 DTC); settings: H1975-clone #28 (Del19/T790M/C797S), maximum percentage of inhibition (degradation)
Experimental: as §2, §3, §4, §5, §6, §7, §8
Wherein, X and Y are known values, and IC50, Hillslope, Top and Bottom are the parameters obtained by fitting with software. […]

[5] = BaF3-LTC (L858R/T790M/C797S), maximum percentage of inhibition (degradation)
[6] = BaF3 LC (L858R/C797S), maximum percentage of inhibition (degradation), read-out: BaF3 LC Dmax (%)

T1 sequence (P00533 25-1210 T790M/C797S/L858R): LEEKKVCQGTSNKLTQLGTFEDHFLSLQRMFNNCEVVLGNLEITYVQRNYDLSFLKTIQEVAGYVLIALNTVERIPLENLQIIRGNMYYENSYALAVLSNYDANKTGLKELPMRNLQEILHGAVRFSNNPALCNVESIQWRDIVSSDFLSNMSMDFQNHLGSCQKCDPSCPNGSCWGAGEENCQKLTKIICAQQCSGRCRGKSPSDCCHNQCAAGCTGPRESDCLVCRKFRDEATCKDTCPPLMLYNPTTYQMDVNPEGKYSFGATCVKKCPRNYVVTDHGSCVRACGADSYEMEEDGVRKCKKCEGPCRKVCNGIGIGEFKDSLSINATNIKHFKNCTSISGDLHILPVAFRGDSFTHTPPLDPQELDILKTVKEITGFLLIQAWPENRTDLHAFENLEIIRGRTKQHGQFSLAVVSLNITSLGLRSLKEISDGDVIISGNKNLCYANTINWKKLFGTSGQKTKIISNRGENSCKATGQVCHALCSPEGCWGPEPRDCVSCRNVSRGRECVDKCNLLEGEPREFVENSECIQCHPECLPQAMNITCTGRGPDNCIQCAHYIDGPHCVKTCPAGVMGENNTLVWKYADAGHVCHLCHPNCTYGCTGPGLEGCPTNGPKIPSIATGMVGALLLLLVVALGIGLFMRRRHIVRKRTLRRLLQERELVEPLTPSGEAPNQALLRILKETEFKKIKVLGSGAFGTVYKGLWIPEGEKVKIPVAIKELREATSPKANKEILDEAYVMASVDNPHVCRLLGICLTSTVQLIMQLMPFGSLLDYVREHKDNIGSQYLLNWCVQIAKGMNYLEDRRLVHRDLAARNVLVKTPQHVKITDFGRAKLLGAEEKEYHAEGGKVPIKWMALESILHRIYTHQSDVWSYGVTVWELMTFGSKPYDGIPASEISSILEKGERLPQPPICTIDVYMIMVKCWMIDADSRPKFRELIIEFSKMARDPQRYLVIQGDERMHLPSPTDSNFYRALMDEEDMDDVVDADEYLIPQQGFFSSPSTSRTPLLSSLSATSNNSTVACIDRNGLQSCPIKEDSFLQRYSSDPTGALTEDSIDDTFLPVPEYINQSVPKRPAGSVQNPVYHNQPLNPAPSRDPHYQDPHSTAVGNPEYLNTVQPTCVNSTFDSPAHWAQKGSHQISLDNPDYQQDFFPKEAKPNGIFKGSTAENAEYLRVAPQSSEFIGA
T2 sequence (P00533 25-1210 C797S/L858R): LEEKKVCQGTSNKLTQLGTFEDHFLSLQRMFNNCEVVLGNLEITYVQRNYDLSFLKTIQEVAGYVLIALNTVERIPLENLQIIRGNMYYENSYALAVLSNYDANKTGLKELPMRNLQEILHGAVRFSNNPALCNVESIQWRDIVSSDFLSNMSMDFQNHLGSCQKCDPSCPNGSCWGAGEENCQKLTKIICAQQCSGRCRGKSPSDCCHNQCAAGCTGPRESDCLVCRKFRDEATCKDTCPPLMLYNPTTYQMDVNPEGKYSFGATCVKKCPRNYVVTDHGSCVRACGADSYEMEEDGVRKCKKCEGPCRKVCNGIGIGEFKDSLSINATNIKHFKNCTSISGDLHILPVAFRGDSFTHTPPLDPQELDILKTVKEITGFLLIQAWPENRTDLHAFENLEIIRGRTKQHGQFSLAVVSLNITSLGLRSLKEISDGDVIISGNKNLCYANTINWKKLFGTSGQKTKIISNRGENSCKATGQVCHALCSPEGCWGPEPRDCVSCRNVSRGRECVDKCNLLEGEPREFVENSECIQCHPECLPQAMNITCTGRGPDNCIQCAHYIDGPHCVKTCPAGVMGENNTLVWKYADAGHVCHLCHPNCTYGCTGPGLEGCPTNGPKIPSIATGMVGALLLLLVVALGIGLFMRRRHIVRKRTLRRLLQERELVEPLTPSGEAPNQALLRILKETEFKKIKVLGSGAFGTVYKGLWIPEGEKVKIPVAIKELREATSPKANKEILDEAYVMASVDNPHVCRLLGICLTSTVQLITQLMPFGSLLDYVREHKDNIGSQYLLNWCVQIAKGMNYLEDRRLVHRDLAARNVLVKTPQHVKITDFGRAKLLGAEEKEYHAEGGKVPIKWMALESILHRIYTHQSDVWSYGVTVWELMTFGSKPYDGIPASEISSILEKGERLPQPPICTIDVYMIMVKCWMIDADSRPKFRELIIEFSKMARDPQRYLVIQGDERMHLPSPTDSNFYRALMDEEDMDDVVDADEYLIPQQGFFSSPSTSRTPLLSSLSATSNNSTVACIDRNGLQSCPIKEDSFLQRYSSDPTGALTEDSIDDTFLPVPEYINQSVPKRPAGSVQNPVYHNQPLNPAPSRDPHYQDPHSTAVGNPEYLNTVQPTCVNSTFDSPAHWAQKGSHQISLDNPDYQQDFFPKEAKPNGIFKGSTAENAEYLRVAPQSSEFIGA

Dmax [1, 5] [%]	Dmax [3, 6] [%]	Compound	H1975 # 28 DTC Dmax (%) [4] [%]	Dmax [1] [%]	further results
		CCc1ncc2c(P(C)(C)=O)c(Nc3nc(Nc4cc(CC)c(N5CCC(N6CCN(CCc7ccc8c(c7)oc(=O)n8C7CCC(=O)NC7=O)CC6)CC5)cc4OC)ncc3Br)ccc2n1 (stereo not shown) [Example 499, 3-(6-(2-(4-(1-(4-((5-bromo-4-((5-(dimethylphosphoryl)-2-ethylquinazolin-6-yl)amino)pyrimidin-2-yl)amino)-2-ethyl-5-methoxyphenyl)piperidin-4-yl)piperazin-1-yl)ethyl)-2-oxobenzo[d]oxazol-3(2H)-yl)piperidine-2,6-dione]	77.41	87.8	Dmax ([3]; BaF3, read-out: BaF3 LC Dmax (%)): 91%
		CCOc1cc(N2CCC(N3CCN(CC4CN(c5cccc6c5oc(=O)n6C5CCC(=O)NC5=O)C4)CC3)CC2)c(CC)cc1Nc1ncc(Br)c(Nc2ccc3nc(CC)ncc3c2P(C)(C)=O)n1 (stereo not shown) [Example 566, 3-(7-(3-((4-(1-(4-((5-bromo-4-((5-(dimethylphosphoryl)-2-ethylquinazolin-6-yl)amino)pyrimidin-2-yl)amino)-5-ethoxy-2-ethylphenyl)piperidin-4-yl)piperazin-1-yl)methyl)azetidin-1-yl)-2-oxobenzol[d]oxazol-3(2H)-yl)piperidine-2,6-dione]	84.02	93.9	
		CCOc1cc(N2CCC(N3CCN(CCc4cccc5c4oc(=O)n5C4CCC(=O)NC4=O)CC3)CC2)c(CC)cc1Nc1ncc(Br)c(Nc2ccc3nc(CC)ncc3c2P(C)(C)=O)n1 (stereo not shown) [Example 563, 3-(7-(2-(4-(1-(4-((5-bromo-4-((5-(dimethylphosphoryl)-2-ethylquinazolin-6-yl)amino)pyrimidin-2-yl)amino)-5-ethoxy-2-ethylphenyl)piperidin-4-yl)piperazin-1-yl)ethyl)-2-oxobenzo[d]oxazol-3(2H)-yl)piperidine-2,6-dione]	81.88	92.6	
94.7	94	CCOc1cc(N2CCC(N3CCN(CCc4cccc5c4n(C)c(=O)n5C4CCC(=O)NC4=O)CC3)CC2)c(CC)cc1Nc1ncc(Br)c(Nc2ccc3nc(CC)ccc3c2P(C)(C)=O)n1 (stereo not shown) [Example 752, 3-(4-(2-(4-(1-(4-((5-bromo-4-((5-(dimethylphosphoryl)-2-ethylquinolin-6-yl)amino)pyrimidin-2-yl)amino)-5-ethoxy-2-ethylphenyl)piperidin-4-yl)piperazin-1-yl)ethyl)-3-methyl-2-oxo-2,3-dihydro-1H-benzo[d]imidazol-1-yl)piperidine-2,6-dione]			
95.6	90	COc1cc(N2CCC3(CCN(CCCCCOc4cccc5c4CN(C4CCC(=O)NC4=O)C5=O)CC3)CC2)c(C)cc1Nc1ncc(Br)c(Nc2ccc3nccnc3c2P(C)(C)=O)n1 (stereo not shown) [Example 542, 3-(4-((5-(9-(4-((5-bromo-4-((5-(dimethylphosphoryl)quinoxalin-6-yl)amino)pyrimidin-2-yl)amino)-5-methoxy-2-methylphenyl)-3,9-diazaspiro[5.5]undecan-3-yl)pentyl)oxy)-1-oxoisoindolin-2-yl)piperidine-2,6-dione]			DC50 [2]: > 10000 nM; H1975 #23 DC Dmax (%) [2]: 31.04%; DC50 ([3]; BaF3 LC (L858R/C797S)): 16.2 nM
95.6	92.8	CCc1ccc2c(P(C)(C)=O)c(Nc3nc(Nc4cc(C)c(N5CCC(N6CCN(CCc7cccc8c7n(C)c(=O)n8C7CCC(=O)NC7=O)CC6)CC5)cc4OC4CC4)ncc3Br)ccc2n1 (stereo not shown) [Example 584, 3-(4-(2-(4-(1-(4-((5-bromo-4-((5-(dimethylphosphoryl)-2-ethylquinolin-6-yl)amino)pyrimidin-2-yl)amino)-5-cyclopropoxy-2-methylphenyl)piperidin-4-yl)piperazin-1-yl)ethyl)-3-methyl-2-oxo-2,3-dihydro-1H-benzo[d]imidazol-1-yl)piperidine-2,6-dione]			

Compound	Dmax [1, 5] [%]	Dmax [3, 6] [%]	H1975 # 28 DTC Dmax (%) [4] [%]	Dmax [1] [%]	further results
CCc1cc(Nc2ncc(Br)c(Nc3ccc4nc(C)ccc4c3P(C)(C)=O)n2)c(OC2CC2)cc1N1CCC(N2CCN(CCc3cc(F)c([C@H]4CCC(=O)NC4=O)c(F)c3)CC2)CC1 [Example 459, (R)-3-(4-(2-(4-(1-(4-((5-bromo-4-((5-(dimethylphosphoryl)-2-methylquinolin-6-yl)amino)pyrimidin-2-yl)amino)-5-cyclopropoxy-2-ethylphenyl)piperidin-4-yl)piperazin-1-yl)ethyl)-2,6-difluorophenyl)piperidine-2,6-dione]	86.9	76.6			DC50 ([1]; BaF3-LTC (L858R/T790M/C797S), 16 h treatment, HTRF): 7.54 nM; DC50 [2]: 6.01 nM; H1975 #23 DC Dmax (%) [2]: 91.45%; DC50 ([3]; BaF3 LC (L858R/C797S)): 20.7 nM
